# Reference: patent publication US20210060121A1, “NOVEL ANTIBIOTICS AND METHODS OF USING THEM” (priority 2018, published 2021)
# Experiments:
# MRSA(SA11I4) = type: cell-based, Staphylococcus aureus
# Description: (§1) Susceptibility to teixobactin and its analogues was tested on the selected Gram-positive strains using Tecan Freedom EVO high-throughput automated platform, following the standard broth dilution method as described by the Clinical and Laboratory Standards Institute ^3. MICS were determined according to CLSI guideline.
# SA (ATCC29213) = type: cell-based, Staphylococcus aureus
# Description: as §1
# MRSA and SA strains = assay: MIC, summary over S. aureus strains; type: cell-based, Staphylococcus aureus; settings: MRSA clinical isolate and MSSA ATCC29213; from MICs
# Description: as §1
# MRSA SA11 = type: cell-based, Staphylococcus aureus
# Description: as §1
# MRSA SA86 = type: cell-based, Staphylococcus aureus
# Description: as §1
# MRSA SA88 = type: cell-based, Staphylococcus aureus
# Description: as §1
# Enterococcus ATCCET = type: cell-based
# Description: as §1
# Enterococcus ET60 = type: cell-based
# Description: as §1
# Enterococcus ET6 = type: cell-based
# Description: as §1
# [1] = test system: Streptococcus faecalis SF; type: cell-based
# Description: as §1
Structure (SMILES),Minimum inhibitory concentration (MIC) MRSA(SA11I4) (MRSA(SA11I4)),Minimum inhibitory concentration (MIC) SA (ATCC29213) (SA (ATCC29213)),Antibacterial activity compared with teixobactin (MRSA and SA strains),Minimum inhibitory concentration (MIC) MRSA SA11 (MRSA SA11),Minimum inhibitory concentration (MIC) MRSA SA86 (MRSA SA86),Minimum inhibitory concentration (MIC) MRSA SA88 (MRSA SA88),Minimum inhibitory concentration (MIC) Enterococcus ATCCET (Enterococcus ATCCET),Minimum inhibitory concentration (MIC) Enterococcus ET60 (Enterococcus ET60),Minimum inhibitory concentration (MIC) Enterococcus ET6 (Enterococcus ET6),Minimum inhibitory concentration (MIC) Streptococcus faecalis SF [1]
CC[C@@H](C)[C@@H](NC(=O)[C@@H](CCC(N)=O)NC(=O)[C@H](CO)NC(=O)[C@@H](NC(=O)[C@@H](Cc1ccccc1)NC)[C@@H](C)CC)C(=O)N[C@H](C(=O)N[C@@H](CO)C(=O)N[C@H]1C(=O)N[C@@H](C)C(=O)N[C@@H](CC2CCCCC2)C(=O)N[C@@H]([C@@H](C)CC)C(=O)O[C@H]1C)[C@@H](C)CC [Cha10-teixobactin],2 µg/mL,0.5 µg/mL,comparable activities as teixobactin,,,,,,,
"CC[C@@H](C)[C@@H](NC(=O)[C@@H](CCC(N)=O)NC(=O)[C@H](CO)NC(=O)[C@@H](NC(=O)[C@@H](Cc1ccccc1)NC)[C@@H](C)CC)C(=O)N[C@H](C(=O)N[C@@H](CO)C(=O)N[C@H]1C(=O)N[C@@H](C)C(=O)N[C@@H](CCSC)C(=O)N[C@@H]([C@@H](C)CC)C(=O)O[C@H]1C)[C@@H](C)CC [Met10-teixobactin/Methibactin, Met10-teixobactin]",1 µg/mL,0.25 µg/mL,two times higher activities than teixobactin,,,,,,,
CCCC[C@@H]1NC(=O)[C@H](C)NC(=O)[C@H](NC(=O)[C@H](CO)NC(=O)[C@@H](NC(=O)[C@H](NC(=O)[C@@H](CCC(N)=O)NC(=O)[C@H](CO)NC(=O)[C@@H](NC(=O)[C@@H](Cc2ccccc2)NC)[C@@H](C)CC)[C@H](C)CC)[C@@H](C)CC)[C@H](C)OC(=O)[C@H]([C@@H](C)CC)NC1=O [Nle10-teixobactin],2 µg/mL,0.5 µg/mL,comparable activities as teixobactin,,,,,,,
CCC[C@@H]1NC(=O)[C@H](C)NC(=O)[C@H](NC(=O)[C@H](CO)NC(=O)[C@@H](NC(=O)[C@H](NC(=O)[C@@H](CCC(N)=O)NC(=O)[C@H](CO)NC(=O)[C@@H](NC(=O)[C@@H](Cc2ccccc2)NC)[C@@H](C)CC)[C@@H](C)CC)[C@@H](C)CC)[C@H](C)OC(=O)[C@H]([C@@H](C)CC)NC1=O [Nva10-teixobactin],1 µg/mL,0.25 µg/mL,two times higher activities than teixobactin,,,,,,,
"CC[C@H](C)[C@H](NC(=O)[C@@H](Cc1ccccc1)NC)C(=O)N[C@@H](CO)C(=O)N[C@H](CCC(N)=O)C(=O)N[C@@H](C(=O)N[C@H](C(=O)N[C@@H](CO)C(=O)N[C@H]1C(=O)N[C@@H](C)C(=O)N[C@@H](Cc2ccc(F)cc2)C(=O)N[C@@H]([C@@H](C)CC)C(=O)O[C@H]1C)[C@@H](C)CC)[C@@H](C)CC [Phe(4-F)10-teixobactin/Flurobactin, Phe(4-F)10-teixobactin]",1 µg/mL,0.5 µg/mL,two times higher activities than teixobactin,,,,,,,
CC[C@@H](C)[C@@H](NC(=O)[C@@H](CCC(N)=O)NC(=O)[C@H](CO)NC(=O)[C@@H](NC(=O)[C@@H](Cc1ccccc1)NC)[C@@H](C)CC)C(=O)N[C@H](C(=O)N[C@@H](CO)C(=O)N[C@H]1C(=O)N[C@@H](C)C(=O)N[C@@H](C2CCCCC2)C(=O)N[C@@H]([C@@H](C)CC)C(=O)N[C@H]1C)[C@@H](C)CC [T83],1 µg/mL,0.5 µg/mL,,0.5 µg/mL,1 µg/mL,0.5 µg/mL,1 µg/mL,0.5 µg/mL,1 µg/mL,0.5 µg/mL
CC[C@@H](C)[C@@H](NC(=O)[C@@H](CCC(N)=O)NC(=O)[C@H](CO)NC(=O)[C@@H](NC(=O)[C@@H](Cc1ccccc1)NC)[C@@H](C)CC)C(=O)N[C@H](C(=O)N[C@@H](CO)C(=O)N[C@H]1C(=O)N[C@@H](C)C(=O)N[C@@H]([C@@H](C)CC)C(=O)N[C@@H]([C@@H](C)CC)C(=O)N[C@H]1C)[C@@H](C)CC [T84],1 µg/mL,0.5 µg/mL,,0.5 µg/mL,1 µg/mL,1 µg/mL,1 µg/mL,1 µg/mL,1 µg/mL,1 µg/mL
CCC[C@@H]1NC(=O)[C@H](C)NC(=O)[C@H](NC(=O)[C@H](CO)NC(=O)[C@@H](NC(=O)[C@H](NC(=O)[C@@H](CCC(N)=O)NC(=O)[C@H](CO)NC(=O)[C@@H](NC(=O)[C@@H](Cc2ccccc2)NC)[C@@H](C)CC)[C@H](C)CC)[C@@H](C)CC)[C@H](C)NC(=O)[C@H]([C@@H](C)CC)NC1=O [T85],1 µg/mL,0.5 µg/mL,,1 µg/mL,2 µg/mL,2 µg/mL,2 µg/mL,2 µg/mL,2 µg/mL,1 µg/mL
CC[C@@H](C)[C@@H](NC(=O)[C@@H](CCC(N)=O)NC(=O)[C@H](CO)NC(=O)[C@@H](NC(=O)[C@@H](Cc1ccccc1)NC)[C@@H](C)CC)C(=O)N[C@H](C(=O)N[C@@H](CO)C(=O)N[C@H]1C(=O)N[C@@H](C)C(=O)N[C@@H](CCSC)C(=O)N[C@@H]([C@@H](C)CC)C(=O)N[C@H]1C)[C@@H](C)CC [T86],2 µg/mL,1 µg/mL,,1 µg/mL,2 µg/mL,2 µg/mL,2 µg/mL,2 µg/mL,2 µg/mL,1 µg/mL
CC[C@@H](C)[C@@H](NC(=O)[C@@H](CCC(N)=O)NC(=O)[C@H](CCCNC(=N)N)NC(=O)[C@@H](NC(=O)[C@@H](Cc1ccccc1)NC)[C@@H](C)CC)C(=O)N[C@H](C(=O)N[C@@H](CO)C(=O)N[C@H]1C(=O)N[C@@H](C)C(=O)N[C@@H](C2CCCCC2)C(=O)N[C@@H]([C@@H](C)CC)C(=O)O[C@H]1C)[C@@H](C)CC [T87],2 µg/mL,1 µg/mL,,0.5 µg/mL,2 µg/mL,1 µg/mL,1 µg/mL,0.5 µg/mL,1 µg/mL,1 µg/mL
CC[C@@H](C)[C@@H](NC(=O)[C@@H](CCC(N)=O)NC(=O)[C@H](CO)NC(=O)[C@@H](NC(=O)[C@@H](Cc1ccccc1)NC)[C@@H](C)CC)C(=O)N[C@H](C(=O)N[C@@H](CO)C(=O)N[C@H]1C(=O)N[C@@H](C)C(=O)N[C@@H](CC2CC2)C(=O)N[C@@H]([C@@H](C)CC)C(=O)O[C@H]1C)[C@@H](C)CC [β-cyclopropyl-Ala10-teixobactin],2 µg/mL,0.5 µg/mL,comparable activities as teixobactin,,,,,,,
